Experimental data published in patent publication US5668165A, “Small molecule inhibition of RNA/ligand binding” (Scriptgen Pharmaceuticals, Inc., priority 1995, dated 1997).

How the values were obtained:
[1] = biological target: T1, binding of Oct-1 to the HSV ICPO octamer binding site (Homo sapiens, UniProt P14859); test: Oct-1 DNA binding, gel mobility shift assay; settings: 100 μM
T1 sequence (P14859 1-743): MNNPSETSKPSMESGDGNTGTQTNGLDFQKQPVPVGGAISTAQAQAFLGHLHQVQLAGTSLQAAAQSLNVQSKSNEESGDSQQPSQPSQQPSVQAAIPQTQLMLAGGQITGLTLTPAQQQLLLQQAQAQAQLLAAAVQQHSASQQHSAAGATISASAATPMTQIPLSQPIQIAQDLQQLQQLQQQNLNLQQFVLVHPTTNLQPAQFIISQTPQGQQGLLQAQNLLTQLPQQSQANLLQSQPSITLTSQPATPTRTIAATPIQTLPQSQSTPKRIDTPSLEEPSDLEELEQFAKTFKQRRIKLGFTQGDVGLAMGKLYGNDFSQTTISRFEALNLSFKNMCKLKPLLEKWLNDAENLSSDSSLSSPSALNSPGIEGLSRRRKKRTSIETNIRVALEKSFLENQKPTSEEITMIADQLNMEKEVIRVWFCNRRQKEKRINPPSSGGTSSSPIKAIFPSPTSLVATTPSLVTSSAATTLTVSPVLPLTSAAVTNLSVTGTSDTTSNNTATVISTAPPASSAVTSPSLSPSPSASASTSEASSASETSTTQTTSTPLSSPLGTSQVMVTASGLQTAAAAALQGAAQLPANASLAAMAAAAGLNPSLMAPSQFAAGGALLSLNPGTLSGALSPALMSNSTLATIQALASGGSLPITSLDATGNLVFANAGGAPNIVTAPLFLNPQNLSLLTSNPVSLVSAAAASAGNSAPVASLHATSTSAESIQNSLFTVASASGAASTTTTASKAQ
Method: In these studies, the DNA binding activities of two eukaryotic transcription factors, Oct-1 and ATF-2, were analyzed using a gel mobility shift assay. Purified Oct-1 was inculcated in the absence or presence of 100 μM neomycin B with a ^32 P-labelled 70-nt DNA probe containing an HSV ICPO octamer binding site (Stern and Her, Genes and Development, 5:2555-2566 (1991)). Additionally, the effect of 100 μM neomycin B on the binding of ATF-2 to a 35-nt DNA probe homologous to nucleotides -251 to -232 of the HTLV-1 LTR was analyzed.

[2] = tested on: Rev-RRE interaction (splicing of RRE-containing pre-mRNA); test: Rev function in vitro: Rev-mediated repression of splicing; type: biochemical, HIV; settings: RRE-containing pre-mRNA, Rev derivative
Method: The experiments described above measured the ability of 2-DOS antibiotics to interfere with binding of purified Rev to RNA. […] This hypothesis was tested by analyzing Rev function in vitro. In this assay, inhibition of splicing requires both a Rev derivative that can bind RNA, as well as a pre-mRNA containing the RRE. Thus, splicing repression is dependent upon the Rev-RRE interaction. Because neomycin B inhibited Rev binding, it was believed that the drug would reverse splicing repression.

Rev function = Rev function in vivo: cotransfection assay with CAT reporter plasmid pCM128; type: cell-based, HIV; settings: cotransfection of pCM128 with a Rev expression plasmid
Method: The experiments described below were performed to determine whether or not the inhibitory 2-DOS antibiotics antagonize Rev function in vivo. Rev function was measured in a cotransfection assay using the chloramphenicol acetytransferase (CAT) reporter plasmid pCM128, which has a single intron containing both the RRE and the bacterial CAT coding sequence (Hope et al., Proc. Natl. Acad. Sci. USA, 87:7787-7791 (1990)). Normally, the intron is efficiently excised by splicing; therefore, cells transfected with pCM128 express only trace amounts of CAT enzyme activity. Cotransfection with a Rev expression plasmid permits unspliced transcripts to enter the cytoplasm, and thus CAT expression is increased.

[3] = tested on: binding of Rev to the RRE (67-nt RNA probe containing a high affinity Rev-binding site); set-up: species or system HIV; settings: 1 μM drug
in vitro = type: cell-based; settings: human; U1 cells, all concentrations (0-2.5 mM); read-out: cellular growth, of the untreated control
HIV = HIV production (p24) in chronically infected U1 cells; type: cell-based; settings: Human immunodeficiency virus 1, read-out: inhibition of viral production (p24 in the culture medium)
Method: The experiment described below was performed to test whether or not neomycin B inhibits production of HIV in an infected cell. A chronically HIV-infected cell line, U1, was used. This cell line has been previously used as a model to study Rev-dependent activation of viral production. (Pomerantz, et al., Cell, 61:1271-1276 (1990); Michael, et al., J. Virol., 55:1291-1303, (1991)).
Viral production was assessed after exposure of cells to increasing concentrations of neomycin B, using a standard assay that quantifies the amount of an HIV structure protein, p24, in the culture medium.

Structure (SMILES): NC[C@@H]1O[C@H](O[C@H]2[C@@H](O)[C@H](O[C@@H]3[C@@H](O)[C@H](N)C[C@H](N)[C@H]3O[C@H]3O[C@H](CN)[C@@H](O)[C@H](O)[C@H]3N)O[C@@H]2CO)[C@H](N)[C@@H](O)[C@@H]1O [neomycin B]
- binding of Oct-1 to the HSV ICPO octamer binding site [1]: unaffected
- concentration that counteracted the Rev-mediated repression of splicing [2]: 1.0 to 2.5 µM
- Rev function (CAT expression) (Rev function): dose-dependent inhibition
- binding of Rev to a 33-nt RNA probe that contained a high affinity binding site [3]: inhibited
- binding of Rev to a 234-nt RRE that supports a Rev response in vivo [3]: inhibited
- activity (in vitro): 94 to 108%
- inhibition at 2500 µM (HIV): ~85%
